Test results from patent US20240041878A1, “APELIN RECEPTOR MODULATORS FOR TREATMENT OF A DISORDER OR DISEASE ASSOCIATED WITH BBB PERMEABILITY” (BioAge Labs, Inc., priority 2022, published 2024).

Legend:
[1] = system: apelin receptor (APJ) signaling in astrocytes; experiment: Western blot of APJ, p-AKT and t-AKT in astrocytes; format: cell-based, mouse
Method: (§1) To stimulate astrocytes into a reactive state found in aging and neurodegenerative diseases per previous publications (Liddelow et al., 2017; Barbar et al., 2020), a combination of the cytokines TNF-α and IL-1α, and complement factor C1q, were added at 30 ng/mL, 3 ng/mL, and 400 ng/mL, respectively, into astrocyte culture media to make ‘reactive astrocyte cocktail’ (RAC) media. Astrocytes were cultured in RAC media for 24 hours, with or without various concentrations of BGE-105 (10 nM, 50 nM, 250 nM final concentration), (Pyr^1)-Apelin-13 (50 nM; Bachem, Cat. #4029110), BAY-11-7082 (50 μM; Abcam, Cat. #ab141228) or equal volume of vehicle (0.01% DMSO in PBS) (hereafter referred to as ‘RAC treatment’). Cells in Groups 3-6 were treated with RAC for 24 hours, with or without the test compounds (n=4 per group). • Group 1: Control [CON] • Group 2: CON+BGE-105 (50 nM) [CON+105] • Group 3: Reactive control treated with RAC only [RAC] • Group 4: RAC+BGE-105 (50 nM) [RAC+105] • Group 5: RAC+Pyrm-Apelin-13 (50 nM) • Group 6: RAC+BAY-11-7082 (NF-κB inhibitor; 50 μM) [RAC+BAY]
Mice were handled in accordance with principles and guidelines established by the “Guide for the Care and Use of Laboratory Animals” and overseen by the BioAge Lab's Institutional Animal Care and Use Committee (IACUC). Mouse primary astrocytes were isolated and cultured in 0.01% poly-L-lysine coated 6- or 12-well tissue culture plates at 200,000 or 120,000 cells/well, respectively, with astrocyte growth media as previously described in (Lundquist et al. 2022. Knockdown of Astrocytic Monocarboxylate Transporter 4 in the Motor Cortex Leads to Loss of Dendritic Spines and a Deficit in Motor Learning. Mol Neurobiol 59, 1002-1017). […]
(§2) For analysis of astrocyte protein expression, cells were washed after RAC treatment with PBS and lysed with Neuronal Protein Extraction Reagent (Thermo Scientific, Cat. #87792), centrifuged to pellet debris, and supernatant was transferred to a new tube. Total protein concentration was measured by BCA protein assay (Thermo Scientific, Cat. #PI23227).

[2] = system: NF-κB activation and IκBα phosphorylation in astrocytes; experiment: Western blot of NF-κB p65 and p-IκBα/t-IκBα in astrocytes; format: cell-based, mouse
Method: as §1, with “Cells in Groups 3-6 were treated with RAC for 24 hours, with or without the test compounds (n=4 per group). • Group 1: Control [CON] • Group 2: CON+BGE-105 (50 nM) [CON+105] • Group 3: Reactive control treated with RAC only [RAC] • Group 4: RAC+BGE-105 (50 nM) [RAC+105] • Group 5: RAC+Pyrm-Apelin-13 (50 nM) • Group 6: RAC+BAY-11-7082 (NF-κB inhibitor; 50 μM) [RAC+BAY]” left out
as §2

[3] = system: healthy volunteers aged 65 or older; experiment: Phase 1b clinical trial, 10 days of bed rest; format: in vivo, human; conditions: infusions
Source text: The study described herein characterizes the effects of BGE-105 on immune biomarkers in human in a Phase 1b clinical trial directed to treatment of muscular atrophy. […] The double-blind, placebo-controlled trial evaluated the safety and pharmacodynamics of BGE-105. Twenty-one volunteers underwent 10 days of bed rest while receiving infusions of BGE-105 or placebo. Biological samples from treated and placebo groups were collected on Day 6 and Day 11.

wildtype motor neurons = experiment: Neurons exposed to SOD1^G93A astrocyte-conditioned media or co-cultured with SOD1^G93A astrocytes; format: cell-based, mouse
Method: This study conducts co-culture experiments using SOD1^G93A astrocytes and wildtype motor neurons to determine effects of apelin signaling on rescue of neuronal survival and function. Co-culture experiments are conducted by measuring viability, neuronal homeostasis, and morphological endpoints.
Neurons are isolated from mouse spinal cords as previously described in Example 12 above. Non-astrocytic flowthrough following column-based cell isolation (MACS) are collected and cultured in serum-free, neuron-selective media in 12- or 96-well plates for at least 14 days before experimentation. For specific selection of spinal cord motor neurons, wildtype C57BL/6J mouse PNDO or adult spinal cords are processed using published methods (Beaudet, 2015).
Neurons are cultured for at least 14 days before the start of experimentation. First, ACM from wildtype or SOD astrocytes exposed to 250 nM BGE-105 (or vehicle) are added to neurons seeded in 96 well plates for 6, 12, 24, or 48 hours followed by analysis of neuronal survival using the ApoTox-Glo Triplex kit (Promega) to determine optimal exposure time. […]

Mouse astrocyte cells = experiment: CXCL1 and IL-6 ELISA of astrocyte culture media after RAC treatment; format: cell-based; conditions: RAC+BGE-105 250 nM
apelin receptor = target: T1, apelin receptor (Homo sapiens, UniProt P35414); conditions: Ason et al., JCI Insight 2020; cited from earlier work
T1 sequence (P35414 1-380): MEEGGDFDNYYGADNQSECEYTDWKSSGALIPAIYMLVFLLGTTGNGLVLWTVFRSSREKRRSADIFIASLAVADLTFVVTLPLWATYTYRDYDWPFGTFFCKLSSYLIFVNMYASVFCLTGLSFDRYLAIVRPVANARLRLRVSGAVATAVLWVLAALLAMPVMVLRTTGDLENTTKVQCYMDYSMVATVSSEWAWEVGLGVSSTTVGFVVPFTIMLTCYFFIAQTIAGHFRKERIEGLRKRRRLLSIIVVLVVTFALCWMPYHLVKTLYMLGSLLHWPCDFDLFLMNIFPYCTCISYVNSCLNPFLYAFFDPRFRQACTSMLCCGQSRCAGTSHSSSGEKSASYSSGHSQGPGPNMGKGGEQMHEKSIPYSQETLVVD

[4] = RAC+BGE-105 [50 nM] versus CON and RAC

In the case of `COc1cccc(OC)c1-n1c(NS(=O)(=O)[C@@H](C)[C@H](C)c2ncc(C)cn2)nnc1-c1cncc(C)c1` [BGE-105, (2S,3R)—N-(4-(2,6-dimethoxyphenyl)-5-(5-methyl-3-pyridinyl)-4H-1,2,4-triazol-3-yl)-3-(5-methyl-2-pyrimidinyl)-2-butanesulfonamide], the “increase of p-AKT expression level, as compared to t-AKT, normalized with β-actin” value ([1]; RAC+BGE-105 [50 nM]) is reported as “about 2 folds”, the “APJ protein expression normalized with β-actin” value [1, 4] is reported as “No significant fold change” and the t-AKT expression [1, 4] is reported as “remained comparable”. For the same compound, the “ratio of p-IκBα/tIκBα expression normalized to β-actin” value ([2]; RAC+BGE105 (50 nM) versus RAC) was “significantly reduced”, the “NF-κB p65 expression normalized to β-actin” value ([2]; RAC+BGE-105 (50 nM) versus RAC) was “significantly reduced” and the tolerability ([3]; 10 days of bed rest) was “well tolerated”. The “muscle atrophy relative to placebo” value ([3]; 10 days of strict bed rest) was “statistically significant prevention”, the “neuron cell death caused by SOD1^G93A ACM” value (wildtype motor neurons; pretreatment of SOD1^G93A astrocytes with 250 nM BGE-105) was “attenuated” and the “synaptic protein expression and neuronal structural integrity” value (wildtype motor neurons; wildtype neurons cultured with SOD1^G93A astrocytes, 250 nM BGE-105) was “preserves synaptic protein expression and neuronal structural integrity”. The “CXCL1 concentration/release (FIG. 12)” value (Mouse astrocyte cells) was 20000 to 40000 pg/mL, the “IL-6 concentration/release (FIG. 12)” value (Mouse astrocyte cells) was “about 10000 pg/ml” and the “activation of the apelin receptor” value (apelin receptor) was “known to activate”.
